# Experimental data taken from patent US9113629B2, “4-amino-6-(4-substituted-phenyl)-picolinates and 6-amino-2-(4-substituted-phenyl)-pyrimidine-4-carboxylates and their use as herbicides” (DOW AGROSCIENCES LLC, priority 2013, dated 2015).
# Read-outs that look alike come from different tables or passages of the source.
# Tests used:
# [1] = test system: Key Broadleaf Weed and Crop Species; assay: Post-emergent Test II herbicidal activity (Table 5); format: in vivo; details: post-emergence, 336 h, 14 days after application; for pest or weed control at 70 g/ha: application rate 70 g ai/ha; for pest or weed control at 140 g/ha: application rate 140 g ai/ha
# Procedure, shortened: (§1)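 Test species were raised 7–21 d under greenhouse conditions until reaching the first or second true leaf, sprayed with formulated compound at 187 L/ha, and kept subirrigated to avoid wash-off. Fourteen days later, damage was rated visually on a 0–100% scale against untreated plants.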
# [2] = test system: Key Grass and Sedge Weeds as well as Grass Crops; assay: Post-emergent Test II herbicidal activity (Table 6); format: in vivo; details: post-emergence, 336 h
# Procedure, shortened: as §1
# [3] = ABUTH: velvetleaf (Abutilon theophrasti), read-out: Visual Growth Reduction (%) 14 Days After Application, ABUTH
# [4] = AMARE: redroot pigweed (Amaranthus retroflexus), read-out: Visual Growth Reduction (%) 14 Days After Application, AMARE
# [5] = BRSNN: oilseed-rape, canola (Brassica napus), read-out: Visual Growth Reduction (%) 14 Days After Application, BRSNN
# [6] = CHEAL: lambsquarters (Chenopodium album), read-out: Visual Growth Reduction (%) 14 Days After Application, CHEAL
# [7] = EPHHL: wild poinsettia (Euphorbia heterophylla), read-out: Visual Growth Reduction (%) 14 Days After Application, EPHHL
# [8] = HELAN: sunflower (Helianthus annuus), read-out: Visual Growth Reduction (%) 14 Days After Application, HELAN
# [9] = VIOTR: wild pansy (Viola tricolor), read-out: Visual Growth Reduction (%) 14 Days After Application, VIOTR
structure (smiles),measurement,setting,value
COc1c(N)nc(-c2ccc(Br)c(F)c2F)nc1C(=O)O [Compound 8],pest or weed control at 70 g/ha,[1]; [3],95 to 100%
same,pest or weed control at 140 g/ha,[1]; [3],95 to 100%
same,pest or weed control at 70 g/ha,[1]; [4],95 to 100%
same,pest or weed control at 140 g/ha,[1]; [4],95 to 100%
same,pest or weed control at 70 g/ha,[1]; [5],95 to 100%
same,pest or weed control at 140 g/ha,[1]; [5],95 to 100%
same,pest or weed control at 70 g/ha,[1]; [6],95 to 100%
same,pest or weed control at 140 g/ha,[1]; [6],95 to 100%
same,pest or weed control at 70 g/ha,[1]; [7],95 to 100%
same,pest or weed control at 140 g/ha,[1]; [7],95 to 100%
same,pest or weed control at 70 g/ha,[1]; [8],95 to 100%
same,pest or weed control at 140 g/ha,[1]; [8],95 to 100%
same,pest or weed control at 70 g/ha,[1]; [9],95 to 100%
same,pest or weed control at 140 g/ha,[1]; [9],95 to 100%
same,pest or weed control at 70 g/ha,"[2]; Triticum aestivum, TRZSS (wheat), application rate 70 g ai/ha, read-out: Visual Growth Reduction (%) 14 Days After Application, TRZSS",60 to 74%
same,pest or weed control at 140 g/ha,"[2]; Triticum aestivum, TRZSS (wheat), application rate 140 g ai/ha, read-out: Visual Growth Reduction (%) 14 Days After Application, TRZSS",75 to 84%
same,pest or weed control at 70 g/ha,"[2]; CYPES: yellow nutsedge (Cyperus esculentus), application rate 70 g ai/ha, read-out: Visual Growth Reduction (%) 14 Days After Application, CYPES",95 to 100%
same,pest or weed control at 140 g/ha,"[2]; CYPES: yellow nutsedge (Cyperus esculentus), application rate 140 g ai/ha, read-out: Visual Growth Reduction (%) 14 Days After Application, CYPES",95 to 100%
same,pest or weed control at 70 g/ha,"[2]; DIGSA: crabgrass (Digitaria sanguinalis), application rate 70 g ai/ha, read-out: Visual Growth Reduction (%) 14 Days After Application, DIGSA",75 to 84%
same,pest or weed control at 140 g/ha,"[2]; DIGSA: crabgrass (Digitaria sanguinalis), application rate 140 g ai/ha, read-out: Visual Growth Reduction (%) 14 Days After Application, DIGSA",85 to 94%
same,pest or weed control at 70 g/ha,"[2]; ECHCG: barnyardgrass (Echinochloa crus-galli), application rate 70 g ai/ha, read-out: Visual Growth Reduction (%) 14 Days After Application, ECHCG",85 to 94%
same,pest or weed control at 140 g/ha,"[2]; ECHCG: barnyardgrass (Echinochloa crus-galli), application rate 140 g ai/ha, read-out: Visual Growth Reduction (%) 14 Days After Application, ECHCG",85 to 94%
same,pest or weed control at 70 g/ha,"[2]; ORYSA: rice (Oryza sativa), application rate 70 g ai/ha, read-out: Visual Growth Reduction (%) 14 Days After Application, ORYSA",30 to 44%
same,pest or weed control at 140 g/ha,"[2]; ORYSA: rice (Oryza sativa), application rate 140 g ai/ha, read-out: Visual Growth Reduction (%) 14 Days After Application, ORYSA",45 to 59%
same,pest or weed control at 70 g/ha,"[2]; SETFA: giant foxtail (Setaria faberi), application rate 70 g ai/ha, read-out: Visual Growth Reduction (%) 14 Days After Application, SETFA",75 to 84%
same,pest or weed control at 140 g/ha,"[2]; SETFA: giant foxtail (Setaria faberi), application rate 140 g ai/ha, read-out: Visual Growth Reduction (%) 14 Days After Application, SETFA",95 to 100%
same,pest or weed control at 70 g/ha,"[2]; SORVU: grain sorghum (Sorghum vulgare), application rate 70 g ai/ha, read-out: Visual Growth Reduction (%) 14 Days After Application, SORVU",95 to 100%
same,pest or weed control at 140 g/ha,"[2]; SORVU: grain sorghum (Sorghum vulgare), application rate 140 g ai/ha, read-out: Visual Growth Reduction (%) 14 Days After Application, SORVU",95 to 100%
same,pest or weed control at 70 g/ha,"[2]; ZEAMX: maize, corn (Zea mays), application rate 70 g ai/ha, read-out: Visual Growth Reduction (%) 14 Days After Application, ZEAMX",60 to 74%
same,pest or weed control at 140 g/ha,"[2]; ZEAMX: maize, corn (Zea mays), application rate 140 g ai/ha, read-out: Visual Growth Reduction (%) 14 Days After Application, ZEAMX",85 to 94%
same,melting point,,126 to 128 °C (dec.)
COC(=O)c1nc(-c2ccc(I)cc2F)c(F)c(N)c1Cl [Compound 9],pest or weed control at 70 g/ha,[1]; [3],0 to 29%
same,pest or weed control at 140 g/ha,[1]; [3],0 to 29%
same,pest or weed control at 70 g/ha,[1]; [4],0 to 29%
same,pest or weed control at 140 g/ha,[1]; [4],0 to 29%
same,pest or weed control at 70 g/ha,[1]; [5],0 to 29%
same,pest or weed control at 140 g/ha,[1]; [5],0 to 29%
same,pest or weed control at 70 g/ha,[1]; [6],0 to 29%
same,pest or weed control at 140 g/ha,[1]; [6],0 to 29%
same,pest or weed control at 70 g/ha,[1]; [7],0 to 29%
same,pest or weed control at 140 g/ha,[1]; [7],0 to 29%
same,pest or weed control at 70 g/ha,[1]; [8],0 to 29%
same,pest or weed control at 140 g/ha,[1]; [8],0 to 29%
same,pest or weed control at 70 g/ha,[1]; [9],0 to 29%
same,pest or weed control at 140 g/ha,[1]; [9],0 to 29%
same,pest or weed control at 70 g/ha,"[2]; CYPES: yellow nutsedge (Cyperus esculentus), 70 g ai/ha, read-out: Visual Growth Reduction (%) 14 Days After Application, CYPES",0 to 29%
same,pest or weed control at 140 g/ha,"[2]; CYPES: yellow nutsedge (Cyperus esculentus), 140 g ai/ha, read-out: Visual Growth Reduction (%) 14 Days After Application, CYPES",0 to 29%
same,pest or weed control at 70 g/ha,"[2]; DIGSA: crabgrass (Digitaria sanguinalis), 70 g ai/ha, read-out: Visual Growth Reduction (%) 14 Days After Application, DIGSA",0 to 29%
same,pest or weed control at 140 g/ha,"[2]; DIGSA: crabgrass (Digitaria sanguinalis), 140 g ai/ha, read-out: Visual Growth Reduction (%) 14 Days After Application, DIGSA",0 to 29%
same,pest or weed control at 70 g/ha,"[2]; ECHCG: barnyardgrass (Echinochloa crus-galli), 70 g ai/ha, read-out: Visual Growth Reduction (%) 14 Days After Application, ECHCG",0 to 29%
same,pest or weed control at 140 g/ha,"[2]; ECHCG: barnyardgrass (Echinochloa crus-galli), 140 g ai/ha, read-out: Visual Growth Reduction (%) 14 Days After Application, ECHCG",0 to 29%
same,pest or weed control at 70 g/ha,"[2]; ORYSA: rice (Oryza sativa), crop, 70 g ai/ha, read-out: Visual Growth Reduction (%) 14 Days After Application, ORYSA",0 to 29%
same,pest or weed control at 140 g/ha,"[2]; ORYSA: rice (Oryza sativa), crop, 140 g ai/ha, read-out: Visual Growth Reduction (%) 14 Days After Application, ORYSA",0 to 29%
same,pest or weed control at 70 g/ha,"[2]; SETFA: giant foxtail (Setaria faberi), 70 g ai/ha, read-out: Visual Growth Reduction (%) 14 Days After Application, SETFA",0 to 29%
same,pest or weed control at 140 g/ha,"[2]; SETFA: giant foxtail (Setaria faberi), 140 g ai/ha, read-out: Visual Growth Reduction (%) 14 Days After Application, SETFA",0 to 29%
same,pest or weed control at 70 g/ha,"[2]; SORVU: grain sorghum (Sorghum vulgare), 70 g ai/ha, read-out: Visual Growth Reduction (%) 14 Days After Application, SORVU",0 to 29%
same,pest or weed control at 140 g/ha,"[2]; SORVU: grain sorghum (Sorghum vulgare), 140 g ai/ha, read-out: Visual Growth Reduction (%) 14 Days After Application, SORVU",0 to 29%
same,pest or weed control at 70 g/ha,"[2]; TRZSS (wheat, Triticum aestivum), crop, 70 g ai/ha, read-out: Visual Growth Reduction (%) 14 Days After Application, TRZSS",0 to 29%
same,pest or weed control at 140 g/ha,"[2]; TRZSS (wheat, Triticum aestivum), crop, 140 g ai/ha, read-out: Visual Growth Reduction (%) 14 Days After Application, TRZSS",0 to 29%
same,pest or weed control at 70 g/ha,"[2]; ZEAMX: maize, corn (Zea mays), crop, 70 g ai/ha, read-out: Visual Growth Reduction (%) 14 Days After Application, ZEAMX",0 to 29%
same,pest or weed control at 140 g/ha,"[2]; ZEAMX: maize, corn (Zea mays), crop, 140 g ai/ha, read-out: Visual Growth Reduction (%) 14 Days After Application, ZEAMX",0 to 29%
same,melting point,,136 to 138 °C
